Experimental data reported in patent publication US11999699B2, “Substituted pyrazole amides” (GRUENENTHAL GMBH, priority 2021, dated 2024).

What follows are molecules tested against T1, human NaV1.8 (Homo sapiens, UniProt Q9Y5Y9) (assay: Electrophysiology: automated whole-cell voltage-clamp (patch clamp, Qube384) recordings of sodium currents in HEK-NaV1.8 cells). Conditions: potency data either taken from inactivated or resting state, read-out: Potency category (human NaV1.8 IC50).
T1 construct: The following NaV1.8 recombinant cell line was used for recordings: HEK-NaV1.8 (NM 006514.1); expressed in transfected cells; host or cells: HEK (recombinant cell line HEK-NaV1.8)
Type: cell-based
Description: Electrophysiology: Voltage-Clamp Recordings
The following NaV1.8 recombinant cell line was used for recordings: HEK-NaV1.8 (NM 006514.1) with in (NM 018400.3).
Sodium currents were measured using the patch clamp technique in the whole-cell configuration using the Qube384 (Sophion A/S, Copenhagen, Denmark) automated voltage clamp platform. “Multi hole” plates were used for the cell line expressing NaV1.8 while “single hole” plates were used for the recombinant cell lines expressing the other subtypes. Appropriate filters (for minimum seal resistance and minimum current size) and series resistance compensation (for high quality sodium channel recordings) were applied. Data was collected at ambient room temperature.
The recording extracellular solution contained (in mM): NaCl 145 mM, KCl 4 mM, CaCl2 2 mM, MgCl2 1 mM, HEPES 10 mM, Glucose 10 mM, pH 7.4 (NaOH). The intracellular recording solution contained (in mM): CsF 120 mM, CsCl 20 mM, NaCl 10 mM, EGTA 10 mM, HEPES 10 mM, pH 7.2 (CsOH). Currents were recorded at 25 kHz sampling frequency and filtered at 5 kHz. Series resistance compensation was applied at 65%.
Vehicle (VEH) is the control condition where cells are exposed to 0.3% DMSO without compound. All runs include VEH controls being exposed to the same voltage protocols to assess non-compound related phenomena such as run down and then used to isolate compound dependent effects on currents.
To check for state-dependence inhibition, the following voltage-sequence was applied every 20 seconds:
From a resting membrane potential of −120 mV, the first test pulse (P1; 20 ms to −10 mV) was applied to check for channels in the Resting State followed by a brief recovery (20 ms to −120 mV), then holding the membrane voltage to V112 (4 seconds at voltage to obtain half the channel at Rest and half Inactivated) with a subsequent second test pulse (P2; 20 ms to −10 mV) to check for channels in the Inactivated State, followed by another brief recovery (20 ms to −120 mV) and a final third test pulse (P3; 20 ms to −10 mV) to check for recovered channels.
To check for frequency-dependent inhibition, a 10 Hz protocol and a 20 Hz protocol were applied; namely,
From a resting membrane potential of −120 mV, 40-pulses (10 ms to −10 mV) was applied at 10 Hz (at 100 ms between pulses) and then at 20 Hz (at 50 ms between pulses).
Each parameter was recorded (P1, P2, P3, P40 from 10 Hz and P40 from 20 Hz) during a control period (lasting 5 minutes) when establishing the baseline and during compound period (lasting ˜12 minutes) when test compound (or vehicle) was applied. For each parameter, the value at the end of the compound period was normalized to the vehicle baseline; as follows
To adjust for any variance in the Na^+ current signal during the compound period (owing to cumulative inactivation independent of compound or shifts in biophysics over time), a dedicated segment of the recording wells in each 384 plate were dedicated to having only vehicle exposure. These vehicle-only recordings were used to correct for any apparent “run-up” or “run-down” in the experiment.
The adjusted inhibition was calculated as follows: […]
Percent inhibition was determined and IC50 values were calculated using a 4 parameter logistic model within XLFit Software (IDBS, Boston MA):
[formula] where A and B are the maximal and minimum inhibition respectively, C is the IC50 concentration and D is the (Hill) slope.
The potency data was either taken from inactivated or resting state.

T1 sequence (Q9Y5Y9 whole entry): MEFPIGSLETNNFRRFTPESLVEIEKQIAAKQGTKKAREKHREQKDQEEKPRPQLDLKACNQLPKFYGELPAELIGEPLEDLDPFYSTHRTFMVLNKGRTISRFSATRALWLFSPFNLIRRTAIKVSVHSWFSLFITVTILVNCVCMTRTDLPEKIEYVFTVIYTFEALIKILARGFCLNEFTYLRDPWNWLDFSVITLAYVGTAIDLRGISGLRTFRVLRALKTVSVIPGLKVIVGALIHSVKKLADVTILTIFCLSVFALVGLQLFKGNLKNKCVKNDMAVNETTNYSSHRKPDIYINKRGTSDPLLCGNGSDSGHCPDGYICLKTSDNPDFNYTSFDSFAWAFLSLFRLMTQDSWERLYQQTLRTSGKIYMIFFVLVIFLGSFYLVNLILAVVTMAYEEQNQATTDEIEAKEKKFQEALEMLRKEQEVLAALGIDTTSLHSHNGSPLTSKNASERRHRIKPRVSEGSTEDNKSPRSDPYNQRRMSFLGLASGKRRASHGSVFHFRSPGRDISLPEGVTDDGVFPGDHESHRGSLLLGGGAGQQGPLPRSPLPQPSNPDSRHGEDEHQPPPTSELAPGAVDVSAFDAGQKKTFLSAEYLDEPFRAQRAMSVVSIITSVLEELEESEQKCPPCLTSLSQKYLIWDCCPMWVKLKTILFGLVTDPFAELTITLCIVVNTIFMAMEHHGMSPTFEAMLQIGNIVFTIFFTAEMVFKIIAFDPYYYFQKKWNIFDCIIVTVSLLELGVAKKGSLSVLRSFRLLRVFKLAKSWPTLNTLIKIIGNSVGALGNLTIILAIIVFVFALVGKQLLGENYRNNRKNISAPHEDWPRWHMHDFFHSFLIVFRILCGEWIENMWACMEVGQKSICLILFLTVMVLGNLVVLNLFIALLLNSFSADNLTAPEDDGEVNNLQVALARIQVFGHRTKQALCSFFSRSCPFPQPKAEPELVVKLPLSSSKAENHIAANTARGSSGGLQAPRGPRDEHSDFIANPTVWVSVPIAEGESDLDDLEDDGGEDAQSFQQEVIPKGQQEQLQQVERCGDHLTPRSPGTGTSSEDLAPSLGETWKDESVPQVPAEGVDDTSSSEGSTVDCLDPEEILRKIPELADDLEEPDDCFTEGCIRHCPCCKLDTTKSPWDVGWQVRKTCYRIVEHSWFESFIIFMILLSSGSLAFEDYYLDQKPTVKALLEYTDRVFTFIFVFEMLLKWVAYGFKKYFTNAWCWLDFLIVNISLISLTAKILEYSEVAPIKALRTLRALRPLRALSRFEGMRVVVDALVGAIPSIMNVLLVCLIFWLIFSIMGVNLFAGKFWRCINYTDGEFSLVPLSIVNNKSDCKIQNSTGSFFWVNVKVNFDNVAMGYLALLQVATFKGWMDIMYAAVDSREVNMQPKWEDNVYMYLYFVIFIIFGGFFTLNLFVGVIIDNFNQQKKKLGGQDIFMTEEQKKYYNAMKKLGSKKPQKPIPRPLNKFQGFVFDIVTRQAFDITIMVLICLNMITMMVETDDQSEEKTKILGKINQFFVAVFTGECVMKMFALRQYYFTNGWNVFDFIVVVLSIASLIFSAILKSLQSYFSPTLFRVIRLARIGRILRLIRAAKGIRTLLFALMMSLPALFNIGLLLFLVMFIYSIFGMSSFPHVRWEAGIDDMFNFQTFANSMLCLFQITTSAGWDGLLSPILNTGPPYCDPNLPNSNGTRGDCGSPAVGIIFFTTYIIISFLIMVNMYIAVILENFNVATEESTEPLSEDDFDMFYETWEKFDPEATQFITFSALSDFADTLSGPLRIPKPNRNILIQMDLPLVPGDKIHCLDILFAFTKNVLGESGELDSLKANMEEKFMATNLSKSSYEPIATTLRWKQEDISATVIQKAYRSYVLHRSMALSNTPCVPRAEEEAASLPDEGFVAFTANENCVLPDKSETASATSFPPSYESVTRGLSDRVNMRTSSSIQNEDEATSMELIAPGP
T1 sequence (Q9NY72 23-215 partner): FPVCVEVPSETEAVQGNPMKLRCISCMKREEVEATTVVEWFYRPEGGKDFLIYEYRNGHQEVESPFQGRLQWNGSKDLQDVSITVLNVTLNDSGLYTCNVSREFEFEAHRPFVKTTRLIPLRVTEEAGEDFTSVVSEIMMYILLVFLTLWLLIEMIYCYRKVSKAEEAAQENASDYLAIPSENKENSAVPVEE

| Compound | IC50 [nM] |
| --- | --- |
| NC(=O)c1cc(NC(=O)c2c(C(F)(F)F)c(OCC3CC3)nn2CC2CCC(F)(F)C2)ccn1 (racemic) [SC-157, 4-(3-(cyclopropylmethoxy)-1-((3,3-difluorocyclopentyl)methyl)-4-(trifluoromethyl)-1H-pyrazole-5-ca±oxamido)picolinamide] | ≤ 100 |
| Cc1c(C(C)(F)F)nn(CC2CC(F)(F)CC2C(F)(F)F)c1C(=O)Nc1ccnc(C(N)=O)c1 (racemic) [SC-217, 4-(1-((4,4-difluoro-2-(trifluoromethyl)cyclopentyl)methyl)-3-(1,1-difluoroethyl)-4-methyl-1H-pyrazole-5-carboxamido)picolinamide] | ≤ 100 |
| Cc1c(C(C)(F)F)nn(C[C@@H]2C[C@@H]2C(F)F)c1C(=O)Nc1ccnc(C(N)=O)c1 (relative stereo) [SC-206, 4-(3-(1,1-difluoroethyl)-1-((2-(difluoromethyl)cyclopropyl)methyl)-4-methyl-lH-pyrazole-5-carboxamido)picolinamide] | 100 to 1000 |
| COCCOC[C@@H]1CCCC[C@@H]1Cn1nc(C(C)(F)F)c(C)c1C(=O)Nc1ccnc(C(N)=O)c1 (relative stereo) [SC-223, 4-(3-(1,1-difluoroethyl)-1-((2-((2-methoxyethoxy)methyl)cyclohexyl)methyl)-4-methyl-1H-pyrazole-5-ca±oxamido)picolinamide] | ≤ 100 |
| Cc1c(C(F)(F)F)nn(CC2CCC(F)(F)C2)c1C(=O)Nc1ccnc(C(N)=O)c1 (single isomer, unassigned) [SC-118a] | ≤ 100 |
| Cc1c(C(F)(F)F)nn(CC2CCC(F)(F)C2)c1C(=O)Nc1ccnc(C(N)=O)c1 (single isomer, unassigned) [SC-118b] | ≤ 100 |
| NC(=O)c1cc(NC(=O)c2c(C(F)(F)F)c(C3CC3)nn2CC2CCC(F)(F)C2)ccn1 (single isomer, unassigned) [SC-129a] | ≤ 100 |
| CC(F)(F)c1nn(CC2CCC(F)(F)C2)c(C(=O)Nc2ccnc(C(N)=O)c2)c1Cl (single isomer, unassigned) [SC-149a] | ≤ 100 |
| CC(F)(F)c1nn(CC2CCC(F)(F)C2)c(C(=O)Nc2ccnc(C(N)=O)c2)c1Cl (single isomer, unassigned) [SC-149b] | ≤ 100 |
| NC(=O)c1cc(NC(=O)c2c(Cl)c(C(F)(F)F)nn2CC2CCC(F)(F)C2)ccn1 (single isomer, unassigned) [SC-160a] | ≤ 100 |
| NC(=O)c1cc(NC(=O)c2c(Cl)c(C(F)(F)F)nn2CC2CCC(F)(F)C2)ccn1 (single isomer, unassigned) [SC-160b] | ≤ 100 |
| Cc1c(C(C)(F)F)nn(CC2C[C@H]2C(F)(F)F)c1C(=O)Nc1ccnc(C(N)=O)c1 (single isomer, unassigned) [SC-204a] | ≤ 100 |
| Cc1c(C(C)(F)F)nn(C[C@H]2C[C@@H]2C(F)(F)F)c1C(=O)Nc1ccnc(C(N)=O)c1 (single isomer, unassigned) [SC-204b] | ≤ 100 |
| Cc1c(C(C)(F)F)nn(CC2(C)CCC(F)(F)C2)c1C(=O)Nc1ccnc(S(N)(=O)=O)c1 (single isomer, unassigned) [SC-212a] | ≤ 100 |
| Cc1c(C(C)(F)F)nn(C[C@@]2(C)CCC(F)(F)C2)c1C(=O)Nc1ccnc(S(N)(=O)=O)c1 (single isomer, unassigned) [SC-212b] | ≤ 100 |
| Cc1c(C(C)(F)F)nn(CC2(C)CCC(F)(F)C2)c1C(=O)Nc1ccnc(C(N)=O)c1 (single isomer, unassigned) [SC-214a] | ≤ 100 |
| Cc1c(C(C)(F)F)nn(CC2(C)CCC(F)(F)C2)c1C(=O)Nc1ccnc(C(N)=O)c1 (single isomer, unassigned) [SC-214b] | ≤ 100 |

Second part, the molecule after the results:

| IC50 [nM] | Compound |
| --- | --- |
| ≤ 100 | NC(=O)c1cc(NC(=O)c2c(C(F)(F)F)c(C3CC3)nn2C[C@@H]2CCO[C@H]2C(F)(F)F)ccn1 (racemic) [SC-147c] |
| ≤ 100 | CS(=O)(=O)c1cc(NC(=O)c2c(C(F)(F)F)c(C3CC3)nn2C[C@@H]2CCO[C@H]2C(F)(F)F)ccn1 (racemic) [SC-150c] |
| ≤ 100 | CS(=O)(=O)c1cc(NC(=O)c2c(C(F)(F)F)c(OC(F)F)nn2CC2CCC(F)(F)C2)ccn1 (racemic) [SC-293, 1-((3,3-difluorocyclopentyl)methyl)-3-(difluoromethoxy)-N-(2-(methylsulfonyl)pyridin-4-yl)-4-(trifluoromethyl)-1H-pyrazole-5-carboxamide] |
| ≤ 100 | NC(=O)c1cc(NC(=O)c2c(C(F)(F)F)c(C3CC3)nn2CC2CCC(F)(F)C2)ccn1 (single isomer, unassigned) [SC-129b] |
| ≤ 100 | NC(=O)c1cc(NC(=O)c2c(C(F)(F)F)c(C3CC3)nn2CC2CCCOC2)ccn1 (single isomer, unassigned) [SC-145a, 4-(3-Cyclopropyl-1-((tetrahydro-2H-pyran-3-yl)methyl)-4-(trifluoromethyl)-1H-pyrazole-5-carboxamido)picolinamide] |
| ≤ 100 | NC(=O)c1cc(NC(=O)c2c(C(F)(F)F)c(C3CC3)nn2CC2CCCOC2)ccn1 (single isomer, unassigned) [SC-145b, 4-(3-Cyclopropyl-1-((tetrahydro-2H-pyran-3-yl)methyl)-4-(trifluoromethyl)-1H-pyrazole-5-carboxamido)picolinamide] |
| ≤ 100 | NC(=O)c1cc(NC(=O)c2c(C(F)(F)F)c(C3CC3)nn2C[C@@H]2CCO[C@@H]2C(F)(F)F)ccn1 (single isomer, unassigned) [SC-147a] |
| ≤ 100 | NC(=O)c1cc(NC(=O)c2c(C(F)(F)F)c(C3CC3)nn2C[C@@H]2CCO[C@@H]2C(F)(F)F)ccn1 (single isomer, unassigned) [SC-147b] |
| ≤ 100 | NC(=O)c1cc(NC(=O)c2c(C(F)(F)F)c(C3CC3)nn2C[C@@H]2CO[C@H](C(F)(F)F)C2)ccn1 (single isomer, unassigned) [SC-148a] |
| ≤ 100 | NC(=O)c1cc(NC(=O)c2c(C(F)(F)F)c(C3CC3)nn2C[C@@H]2CO[C@H](C(F)(F)F)C2)ccn1 (single isomer, unassigned) [SC-148b] |
| ≤ 100 | CS(=O)(=O)c1cc(NC(=O)c2c(C(F)(F)F)c(C3CC3)nn2C[C@@H]2CCO[C@@H]2C(F)(F)F)ccn1 (single isomer, unassigned) [SC-150a] |
| ≤ 100 | CS(=O)(=O)c1cc(NC(=O)c2c(C(F)(F)F)c(C3CC3)nn2C[C@@H]2CCO[C@@H]2C(F)(F)F)ccn1 (single isomer, unassigned) [SC-150b] |
| ≤ 100 | NC(=O)c1cc(NC(=O)c2c(C(F)(F)F)c(C3CC3)nn2CC2CCC2(F)F)ccn1 (single isomer, unassigned) [SC-154a, 4-(3-cyclopropyl-1-((2,2-difluorocyclobutyl)methyl)-4-(trifluoromethyl)-1H-pyrazole-5-carboxamido)picolinamide] |
| ≤ 100 | NC(=O)c1cc(NC(=O)c2c(C(F)(F)F)c(C3CC3)nn2CC2CCC2(F)F)ccn1 (single isomer, unassigned) [SC-154b, 4-(3-cyclopropyl-1-((2,2-difluorocyclobutyl)methyl)-4-(trifluoromethyl)-1H-pyrazole-5-carboxamido)picolinamide] |
| ≤ 100 | NC(=O)c1cc(NC(=O)c2c(C(F)(F)F)c(C3CC3)nn2CC2CC(OC(F)(F)F)C2)ccn1 (single isomer, unassigned) [SC-219a] |
| ≤ 100 | NC(=O)c1cc(NC(=O)c2c(C(F)(F)F)c(C3CC3)nn2CC2CC(OC(F)(F)F)C2)ccn1 (single isomer, unassigned) [SC-219b] |
| ≤ 100 | NC(=O)c1cc(NC(=O)c2c(C(F)(F)F)c(C3CC3)nn2CC2CC(C(F)F)C2)ccn1 (single isomer, unassigned) [SC-221a, 4-(3-cyclopropyl-1-((3-(difluoromethyl)cyclobutyl)methyl)-4-(trifluoromethyl)-1H-pyrazole-5-carboxamido)picolinamide] |
